For assay [1], the target named is Histone acetyltransferase KAT2B (Homo sapiens, UniProt Q92831). The assay can be described thus: Inhibition of GST-fused recombinant HAT PCAF expressed in Escherichia coli by filter assay.
Assay [2] has as its target T1, Histone acetyltransferase p300 (Homo sapiens, UniProt Q09472). Description: Inhibition of GST-fused recombinant HAT p300 expressed in Escherichia coli by filter assay.
Assay [3] concerns the target T1, Histone acetyltransferase p300. The assay can be described thus: Inhibition of recombinant His-tagged HAT p300 expressed in Sf21-Baculovirus system.
The target is the same in assay [4]. Description: Inhibition of HAT p300.

In ChEMBL document CHEMBL1140879, “Synthesis of isothiazol-3-one derivatives as inhibitors of histone acetyltransferases (HATs)” (Bioorg Med Chem, 2009) one finds IC50 data, which are given here for 22 molecules.

The term IC50 denotes the concentration at which inhibition is half-maximal.

The structures appear in SMILES notation.

T1 sequence (Q09472 whole entry, the tested form may be a part): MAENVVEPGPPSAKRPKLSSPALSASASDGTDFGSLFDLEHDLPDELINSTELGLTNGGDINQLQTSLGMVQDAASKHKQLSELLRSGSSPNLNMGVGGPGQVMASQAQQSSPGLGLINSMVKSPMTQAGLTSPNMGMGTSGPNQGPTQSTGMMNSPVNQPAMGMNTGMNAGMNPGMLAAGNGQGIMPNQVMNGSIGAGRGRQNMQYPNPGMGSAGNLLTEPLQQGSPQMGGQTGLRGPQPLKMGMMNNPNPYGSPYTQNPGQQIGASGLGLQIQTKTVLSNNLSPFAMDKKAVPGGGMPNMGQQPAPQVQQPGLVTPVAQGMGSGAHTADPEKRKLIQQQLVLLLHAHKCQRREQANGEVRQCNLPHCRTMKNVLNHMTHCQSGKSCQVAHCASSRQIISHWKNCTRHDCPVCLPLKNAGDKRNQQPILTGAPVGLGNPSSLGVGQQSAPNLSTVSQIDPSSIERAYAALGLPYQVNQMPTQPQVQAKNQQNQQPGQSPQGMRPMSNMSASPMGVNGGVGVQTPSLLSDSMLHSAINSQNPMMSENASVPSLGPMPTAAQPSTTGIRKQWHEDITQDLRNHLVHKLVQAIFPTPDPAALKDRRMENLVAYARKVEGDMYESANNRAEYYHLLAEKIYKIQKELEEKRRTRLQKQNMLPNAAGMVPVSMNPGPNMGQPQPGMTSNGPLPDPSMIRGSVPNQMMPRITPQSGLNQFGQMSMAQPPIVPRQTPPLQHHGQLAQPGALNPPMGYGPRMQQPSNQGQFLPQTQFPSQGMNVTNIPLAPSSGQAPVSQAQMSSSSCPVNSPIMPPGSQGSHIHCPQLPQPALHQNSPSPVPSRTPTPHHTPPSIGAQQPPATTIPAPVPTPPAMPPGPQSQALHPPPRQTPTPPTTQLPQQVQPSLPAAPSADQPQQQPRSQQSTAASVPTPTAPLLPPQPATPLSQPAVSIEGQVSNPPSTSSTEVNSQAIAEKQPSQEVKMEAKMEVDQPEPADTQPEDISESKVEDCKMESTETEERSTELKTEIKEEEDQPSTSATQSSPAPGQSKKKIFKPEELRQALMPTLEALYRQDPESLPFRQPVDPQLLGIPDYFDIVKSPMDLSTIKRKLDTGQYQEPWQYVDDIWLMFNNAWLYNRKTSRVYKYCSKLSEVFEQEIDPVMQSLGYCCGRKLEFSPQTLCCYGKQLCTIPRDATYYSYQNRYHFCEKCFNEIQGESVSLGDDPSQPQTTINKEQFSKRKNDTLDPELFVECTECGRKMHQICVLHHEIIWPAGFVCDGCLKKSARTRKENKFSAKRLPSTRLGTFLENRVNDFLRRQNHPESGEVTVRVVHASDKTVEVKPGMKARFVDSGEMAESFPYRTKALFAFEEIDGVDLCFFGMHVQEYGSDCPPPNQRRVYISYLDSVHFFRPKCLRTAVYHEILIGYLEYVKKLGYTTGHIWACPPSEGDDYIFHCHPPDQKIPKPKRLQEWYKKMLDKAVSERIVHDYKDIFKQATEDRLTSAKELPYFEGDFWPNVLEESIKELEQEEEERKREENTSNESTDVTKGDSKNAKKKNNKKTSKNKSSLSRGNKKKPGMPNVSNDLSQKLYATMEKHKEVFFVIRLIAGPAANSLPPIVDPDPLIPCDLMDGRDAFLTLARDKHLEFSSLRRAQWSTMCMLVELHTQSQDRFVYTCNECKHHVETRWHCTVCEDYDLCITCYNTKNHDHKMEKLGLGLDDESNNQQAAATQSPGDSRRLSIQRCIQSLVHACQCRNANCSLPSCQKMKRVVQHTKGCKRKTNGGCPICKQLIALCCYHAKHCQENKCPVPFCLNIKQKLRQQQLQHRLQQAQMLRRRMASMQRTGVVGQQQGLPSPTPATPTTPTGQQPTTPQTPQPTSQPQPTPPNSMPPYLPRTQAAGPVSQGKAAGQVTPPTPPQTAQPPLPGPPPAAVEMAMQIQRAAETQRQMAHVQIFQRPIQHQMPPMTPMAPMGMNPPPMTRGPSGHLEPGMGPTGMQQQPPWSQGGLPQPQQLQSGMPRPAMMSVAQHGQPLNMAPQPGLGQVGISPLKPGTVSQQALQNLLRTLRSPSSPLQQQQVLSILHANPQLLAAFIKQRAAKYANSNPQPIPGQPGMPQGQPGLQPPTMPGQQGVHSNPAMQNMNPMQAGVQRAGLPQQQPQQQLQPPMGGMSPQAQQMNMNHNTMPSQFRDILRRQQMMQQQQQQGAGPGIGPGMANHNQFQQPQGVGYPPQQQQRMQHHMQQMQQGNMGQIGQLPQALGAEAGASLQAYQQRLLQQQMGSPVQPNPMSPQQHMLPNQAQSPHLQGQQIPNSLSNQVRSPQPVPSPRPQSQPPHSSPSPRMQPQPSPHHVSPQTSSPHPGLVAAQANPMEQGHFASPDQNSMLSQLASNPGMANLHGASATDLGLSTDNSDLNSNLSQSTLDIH
Chain of Histone acetyltransferase KAT2B (Q92831 whole entry, the tested form may be a part): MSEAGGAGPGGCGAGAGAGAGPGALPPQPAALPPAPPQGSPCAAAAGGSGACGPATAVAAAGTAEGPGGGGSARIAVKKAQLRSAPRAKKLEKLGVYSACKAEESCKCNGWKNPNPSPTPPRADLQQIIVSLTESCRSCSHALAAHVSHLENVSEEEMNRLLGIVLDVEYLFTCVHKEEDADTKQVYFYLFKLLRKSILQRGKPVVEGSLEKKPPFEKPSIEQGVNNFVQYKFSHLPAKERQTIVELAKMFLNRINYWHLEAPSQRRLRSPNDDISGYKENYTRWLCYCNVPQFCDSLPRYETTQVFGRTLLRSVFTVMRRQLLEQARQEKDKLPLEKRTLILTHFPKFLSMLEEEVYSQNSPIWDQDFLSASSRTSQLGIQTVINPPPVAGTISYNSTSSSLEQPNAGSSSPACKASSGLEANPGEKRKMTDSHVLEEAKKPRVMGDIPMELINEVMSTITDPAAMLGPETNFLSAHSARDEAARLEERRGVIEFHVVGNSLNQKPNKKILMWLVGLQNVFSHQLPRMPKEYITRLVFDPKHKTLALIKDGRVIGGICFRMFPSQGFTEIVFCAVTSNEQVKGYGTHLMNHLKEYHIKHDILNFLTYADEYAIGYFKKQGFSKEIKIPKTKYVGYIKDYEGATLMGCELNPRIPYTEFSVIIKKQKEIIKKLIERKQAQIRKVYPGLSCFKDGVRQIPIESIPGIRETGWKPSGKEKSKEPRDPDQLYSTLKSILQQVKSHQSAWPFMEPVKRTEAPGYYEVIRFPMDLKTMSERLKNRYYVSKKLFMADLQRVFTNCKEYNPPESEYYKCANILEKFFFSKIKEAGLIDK

Turning to `O=c1c2cccnc2sn1-c1ccccc1`, the IC50 in assay [1] was 6.1 µM.
In the case of `CN(C)c1ccc(-n2sccc2=O)cc1`, the IC50 in assay [1] was 5.4 µM.
With `O=c1cc(CO)sn1-c1ccccc1`, the IC50 in assay [1] came to 109 µM.
As for `Cc1csn(-c2ccccc2)c1=O`, the IC50 in assay [1] worked out at 32 µM.
For `[N-]=[N+]=NCc1csn(-c2ccccc2)c1=O`, in assay [1], the IC50 turned out to be 42.7 µM.
On to `O=c1ccsn1-c1cccnc1`, for which the IC50 came to 6.5 µM in assay [1] and 14.4 µM in assay [2].
For `O=c1ccsn1-c1cc(F)c(F)c(F)c1`, the 50% inhibitory concentration (IC50) in assay [1] is 3.1 µM.
Consider `O=c1ccsn1-c1cccc(Cl)c1F`, for which the IC50 in assay [1] is 5.4 µM.
On to `O=c1ccsn1-c1ccccn1`, for which the IC50 in assay [1] is 19 µM; in assay [2] it was 28 µM.
Consider `[N-]=[N+]=NCc1cc(=O)n(-c2ccccc2)s1`, for which the IC50 in assay [1] was 58 µM.
On to `Cc1cc(=O)n(-c2ccccc2)s1`, for which the IC50 in assay [1] was over 200 µM.
In the case of `COCc1csn(-c2ccccc2)c1=O`, the IC50 in assay [1] worked out at 102 µM.
For the molecule `COc1sn(-c2ccccc2)c(=O)c1C`, the IC50 in assay [1] is over 200 µM.
As for `O=c1ccsn1-c1ccc(N2CCOCC2)cc1`, the results for the IC50 in assay [1] and in assay [2] were 7.5 µM and 9.9 µM, respectively.
Turning to `CC(=O)OCc1cc(=O)n(-c2ccccc2)s1`, the IC50 in assay [1] was determined as 162 µM.
In the case of `O=c1ccsn1-c1ccncc1`, the IC50 in assay [1] stood at 1.5 µM; in assay [2], 3 µM.
Regarding `O=c1cc(-c2ccccc2)sn1-c1ccccc1`, the IC50 in assay [1] is over 200 µM.
Regarding `Cc1c(Cl)sn(-c2ccccc2)c1=O`, the IC50 in assay [1] came to 19.8 µM.
For `O=C(Nc1ccccc1)OCc1cc(=O)n(-c2ccccc2)s1`, the concentration for half-maximal inhibition (IC50) in assay [1] was over 200 µM.
Turning to `O=c1ccsn1-c1ccccc1`, the values for the concentration for half-maximal inhibition (IC50) in assay [1] and in assay [2] were 28 µM and 23 µM, respectively.
`C=CC/C=C\C/C=C\CCCCCCCc1cccc(O)c1C(=O)O` [ANACARDIC ACID]: the IC50 in assay [3] is 5 µM.
`C=C(C)[C@@H](CC=C(C)C)C[C@@]12C[C@@H](CC=C(C)C)C(C)(C)[C@@](CC=C(C)C)(C(=O)C(C(=O)c3ccc(O)c(O)c3)=C1O)C2=O` [GARCINOL] displayed a half-maximal inhibitory concentration (IC50) in assay [4] of 6 µM.
